Results on 18 molecules are retold here after patent US11767322B2 (BRISTOL-MYERS SQUIBB COMPANY, priority 2020, dated 2023).

pIC50: −log10 of the molar value. Where two headings read alike, the source gives them in different places.

Experiment [1] deals with MLKL phosphorylation in HT29-L23 human colorectal adenocarcinoma cells. The experiment is described as follows: MLKL phosphorylation high-content assay. It counts as cell-based.
Experiment [2] has as its target T1, His-GST-TVMV-hRIPK1(1-324) (Homo sapiens, UniProt Q13546).
T1 construct: The coding region of human RIPK1(1-324) flanked by NdeI site at 5′ end; made in house; host or cells: Spodoptera frugiperda Sf9 insect cells (baculovirus, Bac-to-Bac)
T1 sequence (Q13546 1-324): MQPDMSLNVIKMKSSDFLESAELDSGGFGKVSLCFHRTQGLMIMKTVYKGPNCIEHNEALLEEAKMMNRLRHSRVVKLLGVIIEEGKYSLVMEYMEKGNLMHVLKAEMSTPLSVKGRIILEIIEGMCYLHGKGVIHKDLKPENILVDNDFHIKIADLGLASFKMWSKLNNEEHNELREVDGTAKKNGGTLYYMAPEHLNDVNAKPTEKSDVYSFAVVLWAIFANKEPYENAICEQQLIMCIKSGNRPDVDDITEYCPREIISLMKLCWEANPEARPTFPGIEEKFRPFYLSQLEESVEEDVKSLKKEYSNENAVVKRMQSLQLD
Briefly: biochemical. Format: binding.

The mark [3] stands for this setting: Homo sapiens, 6 h, read-out: pMLKL IC50, HT29-L23 cells, necroptosis induced with TNFα, SMAC mimetic and Z-VAD, 6 h, maximal inhibition defined by Nec1s.
Setting [4] is: HTRF probe displacement, 1 h at rt, read-out: RIPK1 IC50.
Setting [5] is: read-out: pMLKL IC50, HT29-L23 cells, necroptosis induced with TNFα, SMAC mimetic and Z-VAD, 6 h, maximal inhibition defined by Nec1s.

Usually pIC50 stands for the negative decadic logarithm of the IC50, by convention in mol/L. `Nc1nc2cc(-c3ccc(Cl)c(C(=O)NCCC(O)c4ccc(F)cc4)c3F)ccn2n1` (single isomer, unassigned) [Example 79, 3-(2-amino-[1,2,4]triazolo[1,5-a]pyridin-7-yl)-6-chloro-2-fluoro-N-(3-(4-fluorophenyl)-3-hydroxypropyl)benzamide]: the pIC50 in experiment [1] (setting [3]) was 7.72; in experiment [2] (setting [4]), 8.32.
As for `Cc1ccc(-c2ccn3nc(N)nc3c2)c(F)c1C(=O)NCC(C)(F)C(O)c1ccc(F)cc1` (single isomer, unassigned) [Example 204, 3-(2-amino-[1,2,4]triazolo[1,5-a]pyridin-7-yl)-2-fluoro-N-(2-fluoro-3-(4-fluorophenyl)-3-hydroxy-2-methylpropyl)-6-methylbenzamide], the figures for the pIC50 in experiment [1] (setting [5]) and in experiment [2] (setting [4]) were 8.57 and 8.24, respectively.
On the same counts, the results for `[2H]C(O)(c1ccc(C(F)F)cc1)C(F)(F)CNC(=O)c1c(Cl)ccc(-c2ccn3nc(N)nc3c2)c1F` (single isomer, unassigned) [Example 312, 3-(2-amino-[1,2,4]triazolo[1,5-a]pyridin-7-yl)-6-chloro-N-(3-(4-(difluoromethyl)phenyl)-2,2-difluoro-3-hydroxypropyl-3-d)-2-fluorobenzamide] are 9.05 and 8.24.
Turning to `COC(=O)c1ccc(CCCNC(=O)c2c(Cl)ccc(-c3ccn4nc(N)nc4c3)c2F)cc1` [Example 273, methyl 4-(3-(3-(2-amino-[1,2,4]triazolo[1,5-a]pyridin-7-yl)-6-chloro-2-fluorobenzamido)propyl)benzoate], the pIC50 is 7.43 in experiment [1] (setting [3]) and 8.41 in experiment [2] (setting [4]).
Take `Cc1ccc(-c2ccn3nc(N)nc3c2)c(F)c1C(=O)NCC[C@H](O)c1ccc(Cl)cc1` [Example 151, (S)-3-(2-amino-[1,2,4]triazolo[1,5-a]pyridin-7-yl)-N-(3-(4-chlorophenyl)-3-hydroxypropyl)-2-fluoro-6-methylbenzamide]: the pIC50 in experiment [1] (setting [3]) is 9.10; in experiment [1] (Homo sapiens, read-out: pMLKL IC50, Table 22, compounds of the present invention), 9.10; in experiment [2] (setting [4]), 8.55; in experiment [2] (Table 22, compounds of the present invention, read-out: RPIK1 IC50), 8.46.
As for `[2H]C([2H])([2H])c1ccc(C(O)C(F)(F)CNC(=O)c2c(C([2H])([2H])[2H])ccc(-c3ccn4nc(N)nc4c3)c2F)cc1` (single isomer, unassigned) [Example 201, 3-(2-amino-[1,2,4]triazolo[1,5-a]pyridin-7-yl)-N-(2,2-difluoro-3-hydroxy-3-(4-(methyl-d3)phenyl)propyl)-2-fluoro-6-(methyl-d3)benzamide], the pIC50 in experiment [1] (setting [5]) was 9.05; in experiment [2] (setting [4]), 8.17.
With `[2H]C([2H])([2H])C(O)(c1ccc(F)cc1)C(F)CNC(=O)c1c(C(F)F)ccc(-c2ccn3nc(N)nc3c2)c1F` (single isomer, unassigned) [Example 195, 3-(2-amino-[1,2,4]triazolo[1,5-a]pyridin-7-yl)-6-(difluoromethyl)-2-fluoro-N-(2-fluoro-3-(4-fluorophenyl)-3-hydroxybutyl-4,4,4-d3)benzamide], the pIC50 was 9.00 in experiment [1] (setting [3]) and 8.08 in experiment [2] (setting [4]).
For `[2H]C([2H])([2H])c1ccc(-c2ccn3nc(N)nc3c2)c(F)c1C(=O)NCC(F)(F)C(C)(O)c1ccc(F)cc1` (single isomer, unassigned) [Example 241, 3-(2-amino-[1,2,4]triazolo[1,5-a]pyridin-7-yl)-N-(2,2-difluoro-3-(4-fluorophenyl)-3-hydroxybutyl)-2-fluoro-6-(methyl-d3)benzamide] the same measures were 8.92 and 8.00.
In the case of `Cc1cccc(C(O)C(F)(F)CNC(=O)c2c(Cl)ccc(-c3ccn4nc(N)nc4c3)c2F)c1` (centres unmarked) [Example 175, 3-(2-amino-[1,2,4]triazolo[1,5-a]pyridin-7-yl)-6-chloro-N-(2,2-difluoro-3-hydroxy-3-(m-tolyl)propyl)-2-fluorobenzamide], the pIC50 is 8.11 in experiment [1] (setting [5]) and 8.57 in experiment [2] (setting [4]).
As to `Cc1ccc(C(O)C(F)(F)CNC(=O)c2c(Cl)ccc(-c3ccn4nc(N)nc4c3)c2F)cc1` (centres unmarked) [Example 173, 3-(2-amino-[1,2,4]triazolo[1,5-a]pyridin-7-yl)-6-chloro-N-(2,2-difluoro-3-hydroxy-3-(p-tolyl)propyl)-2-fluorobenzamide], the pIC50 in experiment [1] (setting [3]) and in experiment [2] (setting [4]) was 9.05 in each case.
Take `Nc1nc2cc(-c3ccc(Cl)c(C(=O)NCCC(O)c4ccc(C(F)(F)F)cc4)c3F)ccn2n1` (single isomer, unassigned) [Example 85, 3-(2-amino-[1,2,4]triazolo[1,5-a]pyridin-7-yl)-6-chloro-2-fluoro-N-(3-hydroxy-3-(4-(trifluoromethyl)phenyl)propyl)benzamide]: the results for the pIC50 in experiment [1] (setting [5]) and in experiment [2] (setting [4]) were 9.30 and 8.68, respectively.
Regarding `Cc1ccc(-c2ccn3nc(N)nc3c2)c(F)c1C(=O)NCC(F)(F)[C@@H](O)c1ccc(F)cc1` (single isomer, unassigned) [Example 30], the pIC50 in experiment [1] (setting [3]) was 9.30; in experiment [2] (setting [4]), 8.35.
For `Nc1nc2cc(-c3ccc(Cl)c(C(=O)NCC(F)C(O)c4ccc(Cl)cc4)c3F)ccn2n1` (centres unmarked) [Example 128, 3-(2-amino-[1,2,4]triazolo[1,5-a]pyridin-7-yl)-6-chloro-N-(3-(4-chlorophenyl)-2-fluoro-3-hydroxypropyl)-2-fluorobenzamide] the same measures were 8.92 and 8.30.
For `Nc1nc2cc(-c3ccc(Cl)c(C(=O)NCC(F)(F)C(O)c4cc(F)ccc4F)c3F)ccn2n1` (single isomer, unassigned) [Example 176, 3-(2-amino-[1,2,4]triazolo[1,5-a]pyridin-7-yl)-6-chloro-N-(3-(2,5-difluorophenyl)-2,2-difluoro-3-hydroxypropyl)-2-fluorobenzamide], the pIC50 in experiment [1] (setting [5]) was 8.72; in experiment [2] (setting [4]), 9.52.
With `Cc1ccc(-c2ccn3nc(N)nc3c2)c(F)c1C(=O)NCC(F)(F)C(O)c1c(F)cc(F)cc1F` (single isomer, unassigned) [Example 283, 3-(2-amino-[1,2,4]triazolo[1,5-a]pyridin-7-yl)-N-(2,2-difluoro-3-hydroxy-3-(2,4,6-trifluorophenyl)propyl)-2-fluoro-6-methylbenzamide], the values for the pIC50 in experiment [1] (setting [3]) and in experiment [2] (setting [4]) were 9.00 and 9.30, respectively.
On the same counts, the results for `Cc1ccc(-c2ccn3nc(N)nc3c2)c(F)c1C(=O)NCC(F)(F)Cc1ccc(F)cc1` [Example 208, 3-(2-amino-[1,2,4]triazolo[1,5-a]pyridin-7-yl)-N-(2,2-difluoro-3-(4-fluorophenyl)propyl)-2-fluoro-6-methylbenzamide] are 9.70 and 8.59.
Take `Cc1ccc(-c2ccn3nc(N)nc3c2)c(F)c1C(=O)NCCC(O)c1cccc(Cl)c1` (single isomer, unassigned) [Example 45, 3-(2-amino-[1,2,4]triazolo[1,5-a]pyridin-7-yl)-N-(3-(3-chlorophenyl)-3-hydroxypropyl)-2-fluoro-6-methylbenzamide]: the pIC50 in experiment [1] (setting [5]) is 8.13; in experiment [2] (setting [4]), 8.52.
For the molecule `Cc1ncc(-c2ccn3nc(N)nc3c2)cc1C(=O)NCC(C)(O)Cc1ccc(F)cc1` (centres unmarked) [Compound 421 from WO2018/148626, reference compound], the pIC50 in experiment [1] (Homo sapiens, Table 23, representative compounds from WO2018/148626, read-out: pMLKL IC50) was 6.50; in experiment [2] (Table 23, representative compounds from WO2018/148626, read-out: RIPK1 IC50), 6.96.
